This is an account of results in patent publication US8337444B2, “Measurement of cardiac output and blood volume by non-invasive detection of indicator dilution for hemodialysis” (Alfred E. Mann Institute for Biomedical Engineering at the …, priority 2001, dated 2012).

The nature of data set [1]: Blood ICG concentration after high dose intravenous injection (calibration sequence). Type of data set: in vivo, New Zealand White rabbits. As to conditions: rabbit, 1 mg ICG intravenously, metabolized by the liver. The text has this: A. A sample method and system for measuring cardiac output and blood volume. Experiments have been performed in New Zealand White rabbits (2.8-3.5 Kg) anesthetized with halothane and artificially ventilated with an oxygen-enriched gas mixture (Fio2˜0.4) to achieve a Sao2 above 99% and an end-tidal CO2 between 28 and 32 mm Hg (FIG. 4). The left femoral artery was cannulated for measurement of the arterial blood pressure throughout the procedure. A small catheter was positioned in the left brachial vein to inject the indicator, ICG. Body temperature was maintained with a heat lamp.
Calibration of the transcutaneous fluorescence intensity measured at the level of the animals' ear as a function of ICG concentration in blood was performed as follows. […]
As the liver metabolizes ICG, the blood ICG concentration decreases back to 0 in about 20 minutes. […] The fluorescence intensity of the blood in the cuvette was converted to a measurement of concentration using the known standard curve of fluorescence intensity versus ICG concentration established for the cuvette. ICG fluorescence was measured at the level of the ear at the exact time of the blood sample withdrawal. […]
For the range of concentrations used in these studies, ICG concentration and transcutaneous fluorescence were linearly related. […]

A further data set deals with blood proteins. As to conditions: protein-bound ICG not cleared by dialysis; cited from earlier work.
For data set [2] the following is noted: cited from earlier work.

The structures appear in SMILES notation.

Regarding `CC1(C)C(/C=C/C=C/C=C/C=C2\N(CCCCS(=O)(=O)O)c3ccc4ccccc4c3C2(C)C)=[N+](CCCCS(=O)(=O)[O-])c2ccc3ccccc3c21` [ICG, indocyanine green], in data set [1], the “time for blood ICG concentration to decrease back to 0” value was “about 20 minutes”. Further, the “fraction of ICG injected in the bloodstream that binds to blood proteins” value in the data set on blood proteins is “more than 95%”. The “stability in aqueous solution” value in data set [2] is “breaks down quickly”.
